Laboratory results from patent US8415309B2, “Bicyclic nucleosides and nucleotides as therapeutic agents” (priority 2009, dated 2013).
pIC50, pKi: −log10 of the molar value.

Tests used:
[1] = target: T1, HCV NS5bΔ55 (genotype 1b) (Hepatitis C virus genotype 1b, UniProt P26663); test: HCV Polymerase Inhibition Assay; assay type: biochemical
T1 construct: 100 nM HCV NS5bΔ55 (genotype 1b) in a 50 μl reaction mixture
Protocol: Poly r(U) RNA template (Sigma) is employed for the HCV NS5b polymerase inhibition assay using a NS5bΔ55 (genotype 1b) purified enzyme. The kinetic constant, Km, is determined for the Poly r(U) template and ATP using a non-linear, least squares fit of initial rates as a function of substrate concentration assuming Michaelis-Menten kinetics.
Standard RdRp assays consist of 20 μg/mL Poly r(U) RNA template and 100 nM HCV NS5bΔ55 (genotype 1b) in a 50 μl reaction mixture containing 20 mM Tris-HCl, 5 mM MgCl2, 5 mM MnCl2, 3 mM DTT, 72 μM ATP, and 0.019 μM [α-^33P]ATP. Elongation reactions are initiated by the addition of ATP, and proceed for 60 min at 25° C. Reactions are quenched by the addition of 0.2 M EDTA, and product formation is collected by filtration through Multiscreen plates (Millipore). Quantification of product formation was performed using TopCount (Perkin Elmer). The inhibitor concentration at which the enzyme catalysed rate is reduced by half (IC50) is determined using a computer program for curve fitting.

HCV NS5b polymerase = target: T2, HCV NS5b polymerase (Hepatitis C virus genotype 1b, UniProt P26663); test: HCV NS5b Polymerase Ki Determination Assay; assay type: biochemical
T2 construct: 100 nM HCV NS5bΔ55 (genotype 1b) in a 50 μl reaction mixture
Protocol: A modified method of the NS5b Polymerase inhibition assay was used to determine the Ki and the mode of action for NS5b inhibitor compounds. The enzyme and template were fixed at 100 nM and 20 µg/mL and all other reaction conditions were identical to the NS5b polymerase inhibition assay. The velocity of NS5b reactions were monitored at different ATP and inhibitor concentrations. The ATP concentration ranged from 0.1 μM to 1000 μM, and the concentration of the inhibitor ranged from 0.003 fold to 7 fold of the IC50 value. Velocities obtained at each ATP and inhibitor concentration were analysed using Graph Pad Prism to identify the mode of inhibition and Ki for inhibitor compounds. Under these conditions, the Ki for Compound 25 is 0.08 μM.

[2] = In vitro anabolism of Compound 9, intracellular triphosphate in primary human hepatocytes; assay type: in vitro ADME; conditions: human, plated primary human hepatocytes, Human Hepatocytes
Protocol: (§1) In vitro anabolism of Compound 9 and the intracellular accumulation of its triphosphate (Compound 25) were studied in adherent Huh-7 and plated primary human hepatocytes. The Huh-7 human hepatoma liver cells (JCRB0403 http://cellbank.nibio.go.jp/) are maintained in DMEM containing 10% fetal bovine serum (FBS). Huh-7 cell clones carrying a HCV subgenomic replicon (Lohmann et al., 1999. Science 285: 110-113) are maintained in DMEM supplemented with 10% FBS and 0.25 mg/ml G418. The cell lines are grown at 37° C. in a 5% CO2-95% air atmosphere. Plated primary human hepatocytes (6-well Collagen/No Overlay) were purchased from Cellz Direct (NC, USA) and maintained in InVitroGro Medium (Celsis, In Vitro Technologies, MD USA) under the same incubation conditions.
(§2) For intracellular anabolism studies, Huh-7 cells are trypsinized, harvested, re-suspended in DMEM supplemented with 10% FBS, counted and seeded at a density of 0.7×10^6 cells per well in a six-well plate and incubated for a period of 24 hr at 37° C. in 5% CO^2 atmosphere. Media is removed and replaced with fresh DMEM+10% FBS containing 10 μM Compound 9 for a period of 24 hr at 37° C. The cell monolayer is then quickly washed three times with drug-free medium to remove extracellular Compound 9 and each well is incubated with fresh DMEM+10% FBS for a specified time period (i.e. 6-wells at 0, 2, 4, 8, 24 and 48 hr). At the end of the incubation period, the medium is aspirated from the well and the cell monolayer is washed with cold phosphate buffered saline, pH 7.4. The washed cell monolayer is treated with 1.0 ml ice-cold 70% methanol:water, scraped and harvested into a centrifuge tube and then sonicated for 1 min at 4° C. The resulting cell lysate is stored overnight at −80° C. and subsequently used to extract the metabolites of Compound 9. Isolation of Compound 9 and the intracellular metabolites of Compound 9 from plated primary human hepatocytes uses similar experimental conditions, except that InVitroGro Medium is used as the cell culture medium.
(§3) Sample Analysis for intracellular nucleoside metabolites: The cell lysate samples are thawed on ice, and subjected to two freeze/thaw cycles in a dry ice/acetone bath. Cells extracts are vortexed and centrifuged at 16000 g for 5 min at 4° C. and 40 μL of supernatant is injected for analysis using a API4000 triple quadrupole system. The Shimadzu LC autosampler is set at 4° C. to minimize evaporation. Compound 9 mono-, di- and triphosphate (Compound 25) are separated using a pH gradient on a Biobasic AX, 3.0×50 mm column maintained at 40° C. […] The respective metabolites are identified and quantified by comparing their chromatographic profiles and peak area response with those of authentic standards.

[3] = system: primary human hepatocytes; test: as above; assay type: in vitro ADME
Protocol: as §1, §2, §3

[4] = In vitro anabolism of Compound 9, intracellular triphosphate in replicon cells; assay type: in vitro ADME, human; conditions: human, Huh-7 cells carrying an HCV subgenomic replicon, Huh-7 replicon cells
Protocol: as §1
as §2, with “The resulting cell lysate is stored overnight at −80° C. and subsequently used to extract the metabolites of Compound 9. Isolation of Compound 9 and the intracellular metabolites of Compound 9 from plated primary human hepatocytes uses similar experimental conditions, except that InVitroGro Medium is used as the cell culture medium.” left out
(§4) Sample Analysis for intracellular nucleoside metabolites: The cell lysate samples are thawed on ice, and subjected to two freeze/thaw cycles in a dry ice/acetone bath. […] The respective metabolites are identified and quantified by comparing their chromatographic profiles and peak area response with those of authentic standards.

[5] = system: Huh-7-HCV subgenomic replicon cells; test: as above; assay type: in vitro ADME, human; conditions: Huh-7 replicon cells; 24 hours incubation with Compound 9 at 10 μM
Protocol: as §1
as §2, with “The resulting cell lysate is stored overnight at −80° C. and subsequently used to extract the metabolites of Compound 9. Isolation of Compound 9 and the intracellular metabolites of Compound 9 from plated primary human hepatocytes uses similar experimental conditions, except that InVitroGro Medium is used as the cell culture medium.” left out
as §4

[6] = read-out: Triphosphate decay half-life, Elimination phase (β, h)
[7] = read-out: Triphosphate decay half-life, Initial phase (α, h) (converted)

T2 sequence (P26663 2420-2955): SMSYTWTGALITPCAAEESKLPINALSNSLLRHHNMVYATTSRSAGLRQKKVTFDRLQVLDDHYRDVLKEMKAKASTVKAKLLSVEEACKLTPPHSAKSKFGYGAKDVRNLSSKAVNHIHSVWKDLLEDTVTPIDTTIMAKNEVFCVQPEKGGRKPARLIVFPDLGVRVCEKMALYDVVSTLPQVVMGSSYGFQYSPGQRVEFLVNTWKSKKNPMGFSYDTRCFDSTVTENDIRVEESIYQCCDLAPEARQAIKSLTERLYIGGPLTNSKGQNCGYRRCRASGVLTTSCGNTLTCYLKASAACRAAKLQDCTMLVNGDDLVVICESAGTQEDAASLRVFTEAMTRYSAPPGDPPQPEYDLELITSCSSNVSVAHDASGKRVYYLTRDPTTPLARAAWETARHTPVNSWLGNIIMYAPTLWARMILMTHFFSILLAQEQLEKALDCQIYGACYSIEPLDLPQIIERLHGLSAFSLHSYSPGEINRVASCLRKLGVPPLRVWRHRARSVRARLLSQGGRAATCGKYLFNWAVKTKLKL
T1 sequence (P26663 2420-2955, stated change not applied): as the sequence (P26663 2420-2955) above

In the case of `C[C@@]1(O)[C@H](O)[C@@H](COP(=O)(O)OP(=O)(O)OP(=O)(O)O)O[C@H]1c1ccc2c(N)ncnn12` [Compound 25, 4-amino-7-(2-C-methyl-β-D-ribofuranosyl)-pyrrolo[2,1-f][1,2,4]triazine 5′-triphosphate], the pIC50 [1] was 6.43, the pKi (HCV NS5b polymerase) was 7.10 and the half-life at 10 μM [2, 6] was no less than 38 h. For the same molecule, the half-life at 10 μM [2, 7] was 3.4 h, the “Intracellular Triphosphate Concentration (pmol/million cells, 24 hr incubation)” value ([3]; Human Hepatocytes, 24 hours incubation with Compound 9 at 10 μM) was 339 pmol/million cells and the “intracellular triphosphate level in primary human hepatocytes relative to replicon cells” value ([3]; same experimental conditions, 10 μM Compound 9, 24 hours) was roughly 60 fold. The half-life at 10 μM [4, 6] was no less than 38 h, the half-life at 10 μM [4, 7] was 0.59 h and the “Intracellular Triphosphate Concentration (pmol/million cells, 24 hr incubation)” value [5] was 5.7 pmol/million cells.
